Results on one compound are retold here after patent publication US20110207154A1, “METHOD FOR DETERMINATION OF MARIN[…] AND COMPOUNDS […] SUCH METHOD” (SCOTT & WHITE HEALTHCARE, priority 2010, published 2011).

For the test, the system named is our antisera (rabbit polyclonal antisera against BSA-MBG conjugate). Briefly: competition ELISA with rabbit polyclonal anti-MBG antisera. The conditions noted are these: competition assay. It is filed as binding. As for the experimental part: Initially, both BSA and BLG were employed as the carrier protein. In the former case, excess BSA was added to the reaction mixture to inhibit anti-BSA antibodies from binding to the conjugate. When the BLG-marinobufagenin congugate became available, BLG-marinobufagenin was used for antibody detection. This ELISA format was used as the basis for a competitive ELISA for the detection of marinobufagenin in body specimens.
In an alternative approach, rabbits were immunized with the BSA-MBG conjugate for the production of polyclonal antisera. […] The resulting polyclonal sera were assessed for the presence of MBG-specific antibodies by ELISA (FIG. 11). In this particular format, two of the rabbits produced a strong humoral immune response that allowed dilution of the primary (rabbit) antiserum down to 1 in 4*10^6, even when using a relatively insensitive photometric readout. […] This particular assay has now been equipped with a chemifluorescent readout (using commercially available reagents) and has now reached the target sensitivity of less than 10 pg MBG/ml. As expected, rat urine samples can be measured without prior treatment, but rat plasma and/or serum samples require solid phase extraction using a C8 solid phase and acetonitrile in the mobile phase. Upon drying the eluate of obtained from the extraction cartridge by vacuum centrifugation, MBG can be measured in the circulation of the rat.
A general note: An ELISA detects its analyte on a solid surface through an enzyme-linked reagent.

In the case of `C[C@]12CC[C@H](O)C[C@H]1CC[C@@H]1[C@@H]2CC[C@]2(C)[C@@H](c3ccc(=O)oc3)C[C@H]3O[C@]132` [RBG, resibufogenin], the cross-reactivity with antisera result is recorded as “only measurable at extremely high doses”.
